Source: publication PMC7079008, “Compactness of Protein Folds Alters Disulfide‐Bond Reducibility by Three Orders of Magnitude: A Comprehensive Kinetic Case Study on the Reduction of Differently Sized Tryptophan Cage Model Proteins” (Chembiochem, 2019)
Where a SMILES comes first, the peptide text is derived from it. Bridges are numbered along the chain shown (N, C = ends).

Assay: Complete redox cycle after DTT reduction: reoxidation by dissolved O2 and precipitation, 1H NMR
Assay type: physicochemical
Conditions: twofold excess of DTT, pH 7, 15 °C, sealed NMR tube
Method: Incomplete conversion, despite the presence of a large excess of the RA, provided evidence for the reoxidation of the reduced SS bond of the studied model systems. To study this process in detail, the in situ reoxidation of the DTT‐reduced protein samples at […] in sealed NMR tubes (pH 7, 15 °C, twofold excess of DTT) was monitored for several weeks.
Figure 8 The 50‐membered structure ensembles of A) E11_SS⇄E11_2SH and B) E5_SS⇄E5_2SH. The fold of E11_2SH is more compact than that of E5_2SH, which has more “open” conformers, in which the Cys residues are far from each other. This allows intermolecular, rather than intramolecular, reoxidation. The dissolved oxidized and reduced protein concentrations of C) E11_SS⇄E11_2 SH and D) E5_SS⇄E5_2SH (oxidized: blue; reduced: green) as a function of time. […] E) Estimated parameters of the complete redox cycles. […] Figure S11 contains all data for parameter estimation of E11_SS, E5_SS, and E2_SS. […]
Reoxidation can take place both intra‐ and intermolecularly. […] According to our semiquantitative analysis based on the recorded ^1H NMR spectra, the integral changes of the Trp Hϵ1 resonances both in the oxidized and reduced forms of the protein during reduction with DTT show a decrease in concentration over the observed period of redox time for both E2_SS and E5_SS. […]

decrease of the initial dissolved protein concentration at the end of a complete redox cycle	Structure (SMILES)
68%	CC[C@H](C)[C@@H]1NC(=O)[C@H](Cc2ccc(O)cc2)NC(=O)[C@H](CC(C)C)NC(=O)[C@H](CCCNC(=N)N)NC(=O)[C@H](C(C)C)NC(=O)[C@@H](NC(=O)[C@H](CCC(=O)O)NC(=O)[C@H](CCC(=O)O)NC(=O)[C@@H](N)CCC(=O)O)CSSC[C@@H](C(=O)O)NC(=O)[C@@H]2CCCN2C(=O)[C@@H]2CCCN2C(=O)[C@@H]2CCCN2C(=O)[C@H](CCCNC(=N)N)NC(=O)CNC(=O)[C@H](CO)NC(=O)[C@H](CO)NC(=O)[C@@H]2CCCN2C(=O)CNC(=O)CNC(=O)[C@H](CC(=O)O)NC(=O)[C@H](CCCCN)NC(=O)[C@H](CC(C)C)NC(=O)[C@H](Cc2c[nH]c3ccccc23)NC(=O)[C@H](CCC(N)=O)NC1=O [E5_SS] (H-EEECVRLYIQWLKDGGPSSGRPPPC-OH; disulfide 4-25)
remained the same	CC[C@H](C)[C@@H]1NC(=O)[C@H](Cc2ccc(O)cc2)NC(=O)[C@H](CC(C)C)NC(=O)[C@H](CCCNC(=N)N)NC(=O)[C@H](C(C)C)NC(=O)[C@@H](NC(=O)[C@H](CCC(=O)O)NC(=O)[C@H](CCC(=O)O)NC(=O)[C@H](CCC(=O)O)NC(=O)[C@H](CCSC)NC(=O)[C@H](CCC(N)=O)NC(=O)[C@H](CCCCN)NC(=O)[C@H](CO)NC(=O)[C@H](CC(C)C)NC(=O)[C@@H](N)CC(=O)O)CSSC[C@@H](C(=O)O)NC(=O)[C@@H]2CCCN2C(=O)[C@@H]2CCCN2C(=O)[C@@H]2CCCN2C(=O)[C@H](CCCNC(=N)N)NC(=O)CNC(=O)[C@H](CO)NC(=O)[C@H](CO)NC(=O)[C@@H]2CCCN2C(=O)CNC(=O)CNC(=O)[C@H](CC(=O)O)NC(=O)[C@H](CCCCN)NC(=O)[C@H](CC(C)C)NC(=O)[C@H](Cc2c[nH]c3ccccc23)NC(=O)[C@H](CCC(N)=O)NC1=O [E11_SS] (H-DLSKQMEEECVRLYIQWLKDGGPSSGRPPPC-OH; disulfide 10-31)
